Source: patent publication US20040096951A1, “Crystal structures of retaining glycosytransferases” (priority 2003, published 2004)
Where a name gives a salt, the structure may show the parent alone.

Legend:
LgtC [1] = molecular target: T1, LgtC (Neisseria meningitidis, UniProt Q93EK7); assay: biochemical; assay type: biochemical; conditions: for Function as a substrate for LgtC (transfer): galactosyl β-1,6-lactose incubated in the presence of UDP plus the usual buffer components
T1 construct: a deletion mutant of LgtC missing the C-terminal 25 residues; made in house; host or cells: E. coli (AD202)
Experimental: (§1) Synthesis of UDP-2Fgal was achieved essentially as described previously (ref. 19). Syntheses of 4′-deoxylactose, 6′-deoxylactose and galactosyl β-1,6-lactose will be described elsewhere. Kinetic studies were performed at 30° C. in 20 mM HEPES, pH 7.5 containing 0.1% bovine serum albumin, 50 mM KCl, 5 mM MnCl2 and 5 mM DTT. […] The change in absorbance was measured by means of a UNICAM 8700 UV-Vis spectrophotometer equipped with a circulating water bath. Kinetic parameters were calculated by direct fit of the initial rates to the respective equations using Grafit version 3.0 (ref.43).

[2] = test system: two other galactosyltransferases; conditions: shown previously; cited from earlier work
LgtC [3] = molecular target: T2, LgtC (Neisseria meningitidis, UniProt Q93EK7, Q189A); assay: biochemical; assay type: biochemical; conditions: Q189A mutant; added reagent
T2 construct: a deletion mutant of LgtC missing the C-terminal 25 residues; made in house; host or cells: E. coli (AD202)
Experimental: as §1

[4] = test system: OC[C@H]1O[C@@H](O[C@H]2[C@H](O)[C@@H](O)C(O)O[C@@H]2CO)[C@H](O)[C@@H](O)[C@H]1O; assay: purified protein, by the assay type; assay type: biochemical, Neisseria meningitidis; conditions: other: LgtC wild type; acceptor substrate; pH 7.5; 30.0 °C

T2 sequence (Q93EK7 1-286 Q189A): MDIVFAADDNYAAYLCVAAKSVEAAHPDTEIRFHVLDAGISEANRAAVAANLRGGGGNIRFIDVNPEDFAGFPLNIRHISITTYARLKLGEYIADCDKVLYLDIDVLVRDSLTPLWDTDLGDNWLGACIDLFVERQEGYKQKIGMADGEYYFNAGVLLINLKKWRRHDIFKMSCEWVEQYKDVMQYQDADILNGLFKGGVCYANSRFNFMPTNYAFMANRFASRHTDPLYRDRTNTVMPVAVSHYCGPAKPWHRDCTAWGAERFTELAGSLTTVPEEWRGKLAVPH
T1 sequence (Q93EK7 entry or part of it): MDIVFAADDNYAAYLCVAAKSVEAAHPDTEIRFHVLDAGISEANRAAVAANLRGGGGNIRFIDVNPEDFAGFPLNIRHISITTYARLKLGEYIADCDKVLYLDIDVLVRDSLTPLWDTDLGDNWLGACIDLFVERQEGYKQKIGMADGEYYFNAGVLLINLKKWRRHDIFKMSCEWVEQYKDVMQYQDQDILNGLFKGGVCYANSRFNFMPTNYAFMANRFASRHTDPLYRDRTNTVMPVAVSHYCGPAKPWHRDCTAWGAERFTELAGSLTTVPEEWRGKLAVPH

OC[C@@H]1C[C@H](O)[C@@H](O)[C@H](O[C@H]2[C@H](O)[C@@H](O)C(O)O[C@@H]2CO)O1 (some centres unmarked) [4-deoxylactose, 4′-Deoxylactose]
Ki (LgtC [1]): 16 mM
Function as a substrate for LgtC (transfer) (LgtC [1]; LgtC): cannot function as a substrate

C[C@H]1OC(O)[C@H](O)[C@@H](O)[C@@H]1O[C@@H]1O[C@H](CO)[C@H](O)[C@H](O)[C@H]1O (some centres unmarked) [6-deoxylactose]
Action as an inhibitor of LgtC (LgtC [1]; LgtC): neither did it act as an inhibitor
Function as a substrate for LgtC (transfer) (LgtC [1]; LgtC): shown not to function as a substrate

O=c1ccn([C@@H]2O[C@H](COP(=O)(O)OP(=O)(O)O[C@H]3O[C@H](CO)[C@H](O)[C@H](O)[C@H]3F)[C@@H](O)[C@H]2O)c(=O)[nH]1 [UDP-2FGal, Uridine 5′-diphospho-(2-deoxy-2-fluoro)-α-D-galactopyranose, di-ammonium Salt, reference compound]
Ki (LgtC [1]): 0.002 mM
Function as a substrate for LgtC (transfer) (LgtC [1]; LgtC): no transfer occurs
Inhibition of other galactosyltransferases [2]: shown to inhibit

CC(N)=O [acetamide]
Rescue of activity of the Q189A mutant by added small molecules (rate increase) (LgtC [3]): No rate increases were observed

CC(=O)O [acetate]
Rescue of activity of the Q189A mutant by added small molecules (rate increase) (LgtC [3]): No rate increases were observed

[N-]=[N+]=[N-] [azide]
Rescue of activity of the Q189A mutant by added small molecules (rate increase) (LgtC [3]): No rate increases were observed

NC=O [formamide]
Rescue of activity of the Q189A mutant by added small molecules (rate increase) (LgtC [3]): No rate increases were observed

O=CO [formate]
Rescue of activity of the Q189A mutant by added small molecules (rate increase) (LgtC [3]): No rate increases were observed

LgtC (Neisseria meningitidis)
Km [4]: 20 mM

galactosyl β-1,6-lactose
Function as a substrate for LgtC (transfer) (LgtC [1]; LgtC): does not function as a substrate
